Data on 109 compounds can be found in a melting point compilation (Tetko et al.).

With `O=C1CCC(NC(=O)OCc2ccccc2)CC1`, the melting point was found to be 82 °C.

Turning to `O=C1CCSCC1`, the melting point lay within 62 to 65 °C.

Compound `O=C(Cc1ccccc1)C(Cc1ccccc1)=NNc1ccccc1` yielded a melting point of 137 °C.

The compound `OC1Cc2ccccc21` (centres undefined) returned a melting point of 58 to 59 °C.

For `Cc1ccc(C(=O)c2ccccc2)cc1`, the melting point is 59.5 °C.

Compound `C1=CC2CC1[C@@H](P(c1ccccc1)c1ccccc1)[C@@H]2P(c1ccccc1)c1ccccc1` yielded a melting point of 120 to 125 °C.

`COC(=O)C1(S(=O)(=O)c2ccc(Br)cc2)CCC1` showed a melting point of 95 °C.

For `CN1C(CSCC(F)(F)F)Nc2cc(Cl)c(S(N)(=O)=O)cc2S1(=O)=O` (centres undefined), the melting point was 214 °C.

`Cc1ccc2nc(C(F)(F)F)cc(Cl)c2c1[N+](=O)[O-]`: the melting point lay in the range of 119 to 121 °C.

With `Ic1cccc(CN2CCOCC2)c1`, the melting point lay in the range of 32 to 34 °C.

The compound `O=C1c2ccccc2C(=O)N1c1n[nH]c2ncccc12` displayed a melting point of 254 °C.

`CCC1CC(O)CC(C)(C)N1O` (centres undefined): the melting point was 69 to 73 °C.

`O=C(Cl)c1ccc(-c2ccsc2)cc1` returned a melting point of 145 to 147 °C.

`CC(=O)c1sc2ccccc2c1C` displayed a melting point of 78 °C.

For `COC(=O)C(C)N(C(=O)Cc1ccccc1)c1c(C)cccc1C` (centres undefined), the melting point amounted to 79 °C.

Compound `Cc1ccc(C=C2C(N)=NC(=O)N=C2N)cc1` showed a melting point of 172 to 173 °C.

As to `CC(C)NC(C)C`, the melting point was -61 °C.

Consider `CCCCc1ccc(NC(C)=O)cc1`, for which the melting point is 107 to 109 °C.

The compound `FC(F)(F)c1ccccc1CCc1ccccc1C(F)(F)F` registered a melting point of 75 °C.

The compound `Cc1ccccc1C(=O)Cc1ccccc1C(=O)OC(C)(C)C` yielded a melting point of 30 to 36 °C.

As for `Nc1ccc(-c2cccs2)nc1`, the melting point lay in the range of 144 to 145 °C.

With `NC(=O)c1cccnc1Oc1ccc(Cl)cc1`, the melting point was 150 to 152 °C.

As to `COC(=O)c1cccoc1=O`, the melting point amounted to 76 °C.

Take `NC(=O)/C(=C\c1ccc(Cl)cc1Cl)c1nc2ccccc2s1`: the melting point turned out to be 263 °C.

As to `Cc1ccc(Cl)c(Cl)c1Cl`, the melting point was 43.5 °C.

Compound `CCCCCC(O)c1ccc(O)c(O)c1` (centres undefined) came in with a melting point of 109 °C.

As to `CCCSP(=O)(OCC)SCCC`, the melting point turned out to be 70 °C.

`CCCCCCCC(=O)CCC` had a melting point of 4.5 °C.

`O=[N+]([O-])c1ccccc1/C(O)=C(/C(=N\O)c1ccccc1)c1ccccc1` yielded a melting point of 164 °C.

`COC(=O)c1ccc(C)c(C)c1` returned a melting point of 36 to 38 °C.

`O=C1OC(c2ccccc2)=NC1=Cc1ccc(-c2cccc([N+](=O)[O-])c2)o1` had a melting point of 144 to 145 °C.

For the compound `O=C1C(=O)c2ccccc2C(Cl)=C1Cl`, the melting point came out at 184 °C.

On to `O=C(CBr)c1ccc(F)cc1`, for which the melting point turned out to be 47 °C.

`C=C(C(=O)O)C1CCC2C(=CCC3C(C)(C)C(O)CCC23C)C1` (centres undefined): the melting point is 218 °C.

`CCC(C)(Br)CBr` (centres undefined) yielded a melting point of -70 °C.

The compound `CSc1nc2cc(NCc3ccc(Cl)cc3)ccc2[nH]1` displayed a melting point of 248 °C.

Compound `CC1CCCC1=O` (centres undefined) yielded a melting point of -75 °C.

Consider `CC(=O)OCC1=C(C(=O)O)N2C(=O)C(N)C2SC1` (centres undefined), for which the melting point amounted to 300 °C.

Turning to `O=C(CCl)c1ccc(Cl)c(Cl)c1`, the melting point was 44 °C.

Compound `O=S(=O)(Cl)c1ccc(Br)c(Br)c1` gave a melting point of 34 °C.

With `CCN(CC)CC(=O)OCC(=O)C1(O)CCC2C3CCC4=CC(=O)C=CC4(C)C3C(O)CC21C` (centres undefined), the melting point came to 176 °C.

Consider `O=C1c2ccccc2-c2ccc(Cl)cc21`, for which the melting point turned out to be 126 °C.

Compound `O=C(C1=NOC2C(=O)N(c3ccc(F)cc3)C(=O)C12)c1ccccc1` (centres undefined) displayed a melting point of 156 °C.

Compound `CCCCNCCO` showed a melting point of -2 °C.

The compound `CC(C)CC1=CC(=Cc2ccc(-c3ccccc3)o2)C(=O)O1` showed a melting point of 75 to 76 °C.

`O=[N+]([O-])c1ccc2cccnc2c1` had a melting point of 132 °C.

The compound `COc1ccc(C(=CCC(=O)O)C(C)(C)C(=O)O)cc1` showed a melting point of 137 °C.

Compound `CC(C)(C)OC(=O)N1CCCC[C@@H]1C(=O)O` came in with a melting point of 118 to 122 °C.

Compound `COC(=O)C1(C)CCC(C(=O)O)C1(C)C` (centres undefined) showed a melting point of 74 to 78 °C.

The compound `Nn1c(Cc2ccccc2)nc2ccccc2c1=O` gave a melting point of 111 °C.

`COc1c(Cl)c(Cl)c(Cl)c(Cl)c1OC` gave a melting point of 90 °C.

On to `O=C(O)Cc1ccc(F)cc1F`, for which the melting point turned out to be 118 °C.

Turning to `N#Cc1ccnc(C#N)c1`, the melting point was 90 °C.

`COC(=O)CC(C)=O` yielded a melting point of 27.5 °C.

For `CCOc1ccc(-c2nnc3n2NC(c2ccc(Cl)cc2)S3)cc1` (centres undefined), the melting point stood at 109 °C.

Regarding `Cn1c(=O)c(C2=NNC(=O)C2=Cc2ccccc2)c(O)c2ccccc21`, the melting point was 283 °C.

`CCOC(=O)C(C#N)=NNc1ccccc1[N+](=O)[O-]` came in with a melting point of 102 to 103 °C.

`CC(C(=O)O)C(C)C(=O)O` (centres undefined) returned a melting point of 120 °C.

In the case of `COC1OC(COC(C)=O)C(OC2OC(COC(C)=O)C(OC(C)=O)C(OC(C)=O)C2OC(C)=O)C(OC(C)=O)C1OC(C)=O` (centres undefined), the melting point was found to be 131 °C.

The compound `Cc1cc(O)c(C(C)(C)C)cc1Sc1cc(C(C)(C)C)c(O)cc1C` displayed a melting point of 162 °C.

The compound `Cc1nc(C(F)(F)F)c(C(=O)Nc2c(Br)cc(OC(F)(F)F)cc2Br)s1` had a melting point of 178 °C.

Take `CCSc1ccc2c(c1)N(CCCN1CCN(C)CC1)c1ccccc1S2`: the melting point was 63 °C.

Compound `O=C(O)c1cc(=O)c2ccccc2o1` returned a melting point of 260 °C.

`O=C(Nc1cccc2ccccc12)Nc1cccc2ccccc12` returned a melting point of 296 °C.

Regarding `O=C(O)CC(F)(F)F`, the melting point was 9.7 °C.

Compound `CN1CSC(=S)N(C)C1` came in with a melting point of 106 °C.

`Cc1[nH]c2ccc([N+](=O)[O-])cc2c1C`: the melting point worked out at 189 °C.

Take `FC(F)(F)C(F)(F)C(F)(F)C(F)(F)F`: the melting point is -128 °C.

In turn, `c1ccc(C2Cc3ccccc3N2)cc1` (centres undefined) had a melting point of 49 °C.

In turn, `CC1C=Cn2c(cc3ccccc3c2=O)C1` (centres undefined) registered a melting point of 89 °C.

The compound `Oc1cc(Cl)cc(Cl)c1Cl` had a melting point of 62 °C.

`Cc1[nH]c(=O)n(C(C)(C)C)c(=O)c1Cl` gave a melting point of 176 °C.

Compound `CC(CC(C)(C)O)OC(O)C(Cl)(Cl)Cl` (centres undefined) returned a melting point of 103 °C.

Compound `O=S(=O)(Cl)c1ccc2ncsc2c1` gave a melting point of 118 to 119 °C.

As to `Cc1cc(C)nc(NNC=Cc2ccc([N+](=O)[O-])cc2)n1`, the melting point was in the range of 183 to 184 °C.

Compound `O=C(Cc1ccccc1)OCc1c([N+](=O)[O-])cccc1[N+](=O)[O-]` came in with a melting point of 90 °C.

The compound `O=C(O)c1cc(I)ccc1Cl` had a melting point of 161 to 163 °C.

`Cc1cc(N=O)ccc1N=O` came in with a melting point of 137 °C.

In turn, `C[C@@]12CC[C@@H]3[C@H](CC[C@]4(C)C(=O)CC[C@]34C)[C@@]1(C)CCC(=O)C2` came in with a melting point of 184 to 186 °C.

Regarding `COc1ccc(Br)c([N+](=O)[O-])c1`, the melting point was 31 °C.

In turn, `COc1ccc(C(=O)O)cc1C` registered a melting point of 195 to 197 °C.

In turn, `Cn1[nH]c([N+](=O)[O-])c2c(=O)ccnc1-2` registered a melting point of 223 °C.

`Cn1nc(N)c2c(=O)cc[nH]c21` returned a melting point of 215 to 220 °C.

Consider `COc1ccc(C(=O)c2ccc(-c3ccccc3)cc2)cc1OC`, for which the melting point is 107 to 109 °C.

On to `COc1cc2c3c(c4ccc(OC)c(OC)c4c2cc1OC)CN1CCCC1C3` (centres undefined), for which the melting point is 220 °C.

Compound `Nc1cc(-c2ccc(Cl)cc2)n[nH]1` registered a melting point of 174 to 176 °C.

In the case of `Cc1ccc(O)c(C(O)c2ccc(Br)cc2)c1` (centres undefined), the melting point came out at 107 °C.

Regarding `C=C1N(C(C)=O)c2ccccc2C1(C)C(=O)OC` (centres undefined), the melting point was in the range of 59 to 61 °C.

As for `C[Si](C)(C)C#CC1(O)Cc2ccccc21` (centres undefined), the melting point turned out to be 47 °C.

As for `O=C(Cc1ccccc1)C(=O)C(Br)c1ccccc1` (centres undefined), the melting point was determined as 73 °C.

As to `CC1CCC(C)S1` (centres undefined), the melting point is -89 °C.

`Cc1cc(Br)cc(C)c1N` gave a melting point of 50 °C.

With `COc1ccc2[nH]cc(CC(N)C(=O)O)c2c1` (racemic), the melting point was 258 to 261 °C.

`N#CCC(=O)N1CCCCC1` registered a melting point of 88 °C.

Compound `Cc1nc(-c2ccc(Cl)cc2)sc1C(=O)CBr` yielded a melting point of 120 to 121 °C.

Turning to `O=C(O)c1ccc2[nH]c3c(c2c1)CCCC3`, the melting point fell in the range of 266 to 268 °C.

`N=C(N)NCCCC(NC(=O)c1ccccc1)C(=O)O` (centres undefined) had a melting point of 285 °C.

On to `COC(=O)C=P(c1ccccc1)(c1ccccc1)c1ccccc1`, for which the melting point is 164 to 169 °C.

Compound `c1ccc(-c2cc[nH]n2)cc1` displayed a melting point of 75 to 77 °C.

`COc1cc2c(c(Oc3c(OC)cc4c(c3O)C(CC(C)C)N(C)CC4)c1O)C(CC(C)C)N(C)CC2` (centres undefined) yielded a melting point of 164 °C.

`COC(=O)c1ccc(OC)c([N+](=O)[O-])c1` registered a melting point of 111 °C.

Take `O=C(Cl)c1cc(Br)cc2c1OCC2`: the melting point lay in the range of 126 to 127 °C.

As to `CC(C)(C)C(=O)OCC(=O)C1(O)CCC2C3CCC4=CC(=O)C=CC4(C)C3C(O)CC21C` (centres undefined), the melting point came out at 233 °C.

The compound `CC(C)(C)OC(=O)Nc1ccc(C(=O)O)cc1` came in with a melting point of 179 to 181 °C.

Regarding `Cc1c(CC(=O)O)sc2ccc(Cl)cc12`, the melting point fell in the range of 177 to 178 °C.

Take `O=C1C(c2ccccn2)=[N+]([O-])c2ccccc21`: the melting point worked out at 182 °C.

In turn, `CC(=O)c1cc(O)ccc1O` had a melting point of 206 °C.

Compound `CCCCCCCCCCCCCCCC(=O)OCCCC` displayed a melting point of 16.9 °C.

The compound `c1ccc(C(CCN2CCCCC2)c2ccccc2)cc1` gave a melting point of 41 °C.

By melting point is commonly meant the temperature of the solid-liquid transition.
